This is an account of results in US6329405A, “Cyclobutene derivatives, their preparation and their therapeutic uses” (Sankyo Company, Limited, priority 1999, dated 2001).

Test [1] addresses T1, human ileal bile acid transporter (Homo sapiens, UniProt Q12908).
T1 construct: expressed in transfected cells
T1 sequence (Q12908 1-348): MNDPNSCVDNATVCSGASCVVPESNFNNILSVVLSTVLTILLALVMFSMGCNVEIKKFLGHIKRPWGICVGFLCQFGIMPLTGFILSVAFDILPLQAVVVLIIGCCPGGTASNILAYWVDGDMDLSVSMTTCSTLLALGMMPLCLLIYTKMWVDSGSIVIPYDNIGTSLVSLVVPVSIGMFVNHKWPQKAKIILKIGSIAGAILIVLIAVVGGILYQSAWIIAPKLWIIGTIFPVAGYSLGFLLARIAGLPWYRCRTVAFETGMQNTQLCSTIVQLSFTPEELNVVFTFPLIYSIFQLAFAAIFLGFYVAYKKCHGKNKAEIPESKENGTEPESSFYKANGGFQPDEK
Briefly: Measurement of Bile Acid Transporter Inhibitory Activity in vitro (uptake of [3H]-taurocholic acid into hIBAT-expressing Caco-2 cells). It is filed as cell-based. The note with it: 0.1 μCi [3H]-taurocholic acid, 37° C., 1 hour. From the text: Measurement of Bile Acid Transporter Inhibitory Activity in vitro
1) Insertion of human ileal bile acid transporter cDNA into a mammalian expression vector
Human ileal bile acid transporter cDNA (GenBank accession number U10417, hereinafter abbreviated as "hIBAT") was amplified by PCR using a human kidney cDNA library ("Marathon-Ready"™, Clontech Laboratories) as a template. The sense oligonucleotide primer used was 5'-[…]-3' (corresponding to residues 512-533 of hIBAT cDNA: Sequence ID No. 1) while the antisense oligonucleotide primer used was 5'-[…]-3' (corresponding to residues 1649-1670 of hIBAT cDNA: Sequence ID NO. 2). […]
After incubation, the cells were washed 5 times with ice cooled PBS (phosphate buffered saline) containing 0.2% bovine serum albumin and 1 mM non-radioactive taurocholic acid. […] Radioactivity was measured using a "Top Count" (Packard) liquid scintillation counter.
By measuring the radioactivity of the control (no text compound) and comparing this with the radioactivity obtained from the cells exposed to test compound at various, predetermined concentrations, it was possible to determine a percentage inhibition (%) and to obtain an IC50 for the test compound against the ileal bile acid transporter activity.
In general terms: Caco-2 cells form a polarised layer with tight junctions and transporters.

In test [2] the test system is ileal bile acid transporter. Put plainly: Measurement of Bile Acid Transporter Inhibitory Activity in vivo ([3H]-taurocholic acid radioactivity in gall bladder bile). On the set-up: species or system Syrian golden hamsters. The note with it: male hamsters; oral gavage 100 mg/10 ml/kg; [3H]-taurocholic acid 1.5 hours after; gall bladder bile at 24 hours. As for the experimental part:
Measurement of Bile Acid Transporter Inhibitory Activity in vivo
Male Syrian golden hamsters were used. The hamsters were reared in cages and fed food and water ad libitum. Test compound was orally administered by gavage (100 mg/10 ml/kg) as a suspension in 0.5% w/v carboxymethyl cellulose aqueous solution. Each hamster was given orally 1 μCi of [^3 H]-taurocholic acid ([…]) in physiological saline 1.5 hours after administration of the test compound. Twenty four hours after the oral administration of [^3 H]-taurocholic acid, each of the hamsters was sacrificed and the gall bladder bile was collected. The total radioactivity in the bladder bile was determined and compared to a vehicle-treated group.
Percentage inhibition (%) was determined by the following formula:
Inhibition percentage=100-(radioactivity in the treated
group)/(radioactivity in the control group)×100

The IC50 is the point on the concentration scale where inhibition reaches its midpoint. Read a high IC50 as weaker potency.

With `C[C@H](NC(c1ccccc1)c1cccc(Nc2c(N)c(=O)c2=O)c1)c1ccccc1` (single isomer, unassigned) [2 (isomer B)], in test [1], half-maximal inhibition (IC50) was put at 13.8 µM. In addition, the Percentage inhibition in test [2] was determined as 61.87%.
On to `COc1ccc(C(N[C@H](C)c2cc(F)cc(F)c2)c2cccc(Nc3c(O)c(=O)c3=O)c2)cc1` (single isomer, unassigned) [64(e)], for which the Percentage inhibition in test [2] turned out to be 80.0%.
